Test results from patent US20180066005A1, “TRANS-RESVERATROL POLYSACCHARIDE, METHOD OF PRODUCING THE SAME, AND COMPOSITION COMPRISING THE SAME” (FAITH CO., LTD., priority 2013, published 2018).

Assays:
[1] = Solubility in water at room temperature; format: physicochemical; conditions: for solubility in distilled water: allowed to stand at room temperature, turbid or transparent tube (FIG. 7)
Description: FIG. 7 is a photographic image showing trans-resveratrol-3-O-β-D-monoglucoside contained in the fraction showing a single peak detected in FIG. 1 (A), and trans-resveratrol-3-O-β-D-diglucoside contained in the fraction (a) in FIG. 1 (B), after they were dissolved in distilled water and allowed to stand at room temperature.

[2] = tested on: 3T3 mouse fibroblasts; experiment: Rescue activity from cell death induced by hydrogen peroxide; format: cell-based; conditions: 10 μM for 3 hours, then hydrogen peroxide 15 μM, culture for 12 hours (FIG. 10)
Description: Subsequently, the cultured cells were fixed with 4% paraformaldehyde and stained with Hoechst. Cells in which aggregation in the cell nucleus was observed were determined to be cell death, and the percentage of cell death (vertical axis in the graph) was calculated.
An experiment was conducted to confirm the trans-resveratrol polysaccharide's rescue activity from cell death. RSV, 4M-RSV, and 3P-RSV were each added to a culture medium of 3T3 mouse fibroblasts so that the final concentration was 10 μM, and the fibroblasts were cultured with 5% carbon dioxide at 37° C. for 3 hours. Subsequently, hydrogen peroxide was added to the culture medium so that the final concentration was 15 μM, thereby inducing cell death.
After culture for 12 hours, cell death was determined in the same manner as in Example 1, and the percentage of cell death was calculated.

[3] = tested on: normal human three-dimensional epithelial tissue model MelanoDerm; experiment: Whitening effect: reduction in black areas in epithelial tissue models (MelanoDerm); format: cell-based
Description: An experiment was conducted to confirm the effect of suppressing the expression of NFκB, which is a transcription factor that induces inflammation. Epithelial tissue models were produced using a normal human three-dimensional epithelial tissue model production kit MelanoDerm (MEL-300; Kurabo). RSV was added to the culture media so that the final concentration was 0 μM (Ctrl), 30 μM, 50 μM, and 100 μM, and the tissue models were cultured according to the manual of the kit. RNA in the skin tissue models was collected three weeks after the addition of RSV, and subjected to quantitative PCR analysis to measure the expression level of NFκB. […] Epithelial tissue models were produced using the above kit. RSV was added to the culture media so that the final concentration was 0 μM (Ctrl), 30 μM, 50 μM, and 100 μM, and the tissue models were cultured according to the manual of the kit. Photographic images of the epithelial tissue models were taken three weeks after the addition of RSV. The degree of reduction in black areas due to the addition of RSV was calculated using ImageJ image-analysis software, and the results were graphed. […] Epithelial tissue models were produced in the same manner as in Example 5. RSV, 4 M-RSV, and 3P-RSV were each added so that the final concentration was 50 μM, and the skin tissue models were observed.

[4] = tested on: NFκB; experiment: Suppression of NFκB expression in epithelial tissue models (quantitative PCR); format: cell-based, human; conditions: 30 μM, 50 μM and 100 μM, three weeks after addition (FIG. 11)
Description: An experiment was conducted to confirm the effect of suppressing the expression of NFκB, which is a transcription factor that induces inflammation. Epithelial tissue models were produced using a normal human three-dimensional epithelial tissue model production kit MelanoDerm (MEL-300; Kurabo). RSV was added to the culture media so that the final concentration was 0 μM (Ctrl), 30 μM, 50 μM, and 100 μM, and the tissue models were cultured according to the manual of the kit. RNA in the skin tissue models was collected three weeks after the addition of RSV, and subjected to quantitative PCR analysis to measure the expression level of NFκB.

Structure (SMILES): OCC1OC(OC2C(CO)OC(Oc3cc(O)cc(/C=C/c4ccc(O)cc4)c3)C(O)C2O)C(O)C(O)C1O [trans-resveratrol-3-O-β-D-diglucoside, trans-Resveratrol-3-O-β-D-diglucoside]
- solubility in distilled water [1]: easily dissolved in distilled water at room temperature
- water solubility at ordinary temperature ([1]; ordinary temperature, concluded from ethyl acetate/water partition and HPLC fractions): could acquire water solubility at ordinary temperature

Structure (SMILES): OCC1OC(Oc2cc(O)cc(/C=C/c3ccc(OC4OC(CO)C(OC5OC(CO)C(O)C(O)C5O)C(O)C4O)cc3)c2)C(O)C(O)C1O [4M-RSV, trans-resveratrol-O-β-D-3-monoglucoside-4′-diglycoside]
- rescue activity from cell death induced by hydrogen peroxide (percentage of cell death) [2]: cell death almost equal to that of the case in which hydrogen peroxide was not added (Ctrl)
- degree of reduction in black areas per molecular unit of RSV (whitening effect) ([3]; 50 μM (FIG. 13)): significantly excellent whitening effect

Structure (SMILES): Oc1ccc(/C=C/c2cc(O)cc(O)c2)cc1 [RSV, Trans-resveratrol]
- expression level of NFκB [4]: suppressed the expression level of NFκB in the epithelial tissue models in a concentration-dependent manner
- reduction in black areas (whitening effect) ([3]; 30 μM, 50 μM and 100 μM, three weeks after addition, ImageJ (FIG. 12)): reduced black areas in the epithelial tissue models in a concentration-dependent manner

Structure (SMILES): OC[C@H]1O[C@@H](Oc2cc(O)cc(/C=C/c3ccc(O)cc3)c2)[C@H](O)[C@@H](O)[C@@H]1O [trans-resveratrol-3-O-β-D-monoglucoside, trans-Resveratrol-3-O-β-D-glucopyranoside, reference compound]
- solubility in distilled water [1]: not dissolved in distilled water at room temperature
